US8933224B2, “Triazine derivatives” (Pfizer Inc., priority 2013, dated 2015)

Assays:
[1] = molecular target: human recombinant PDE10 enzyme (PDE10A) (Homo sapiens, UniProt Q9Y233); test: PDE10 scintillation proximity assay (SPA), inhibition of human recombinant PDE10 enzyme activity; assay type: biochemical; details: geometric mean of 2-4 determinations unless otherwise indicated (b: ≧5 determinations; c: single determination)
Method: PDE10 activity was measured using a scintillation assay (SPA-based method) similar to that previously described by Seeger, T. F. et al., Brain Research 985 (2003) 113-126. The compounds' relative activity as PDE10 inhibitors was investigated by assaying a fixed amount of enzyme in the presence of the test compound and low substrate concentration (cAMP) such that an IC50 could be determined. […] The assay is performed in a 384-well format with 50 μL assay buffer (50 mM TRIS pH 7.5; 1.3 mM MgCl2; 0.01% Brij) containing enough PDE10 to convert ˜20% of 20 nM ^3H-cAMP, and a range of inhibitors. Reactions are incubated for 30 minutes at 25° C. The addition of 20 μL of 8 mg/ml yttrium silicate SPA beads (PerkinElmer) stops the reaction. The plates are sealed (TopSeal, PerkinElmer) and the beads are allowed to settle for 8 hrs, after which they are read on the Trilux Microbeta overnight. ^1Rat enzyme preparation:^2Human enzyme preparation:
Human PDE10A coding sequence (amino acids 21 to 797 from the sequence with accession number NP_001124162.1) was synthesized using codon optimization for insect expression and cloned into the baculovirus expression vector pFastBac (Invitrogen) engineered to include a N-terminal His6 affinity tag to aid in purification as described in Seeger, T. F. et al., Brain Research 985 (2003) 113-126. The recombinant Bacmid was isolated and used to transfect sf9 insect cells to generate a viral stock. To generate cell paste for purification, sf21 cells were infected with the virus stock and cells were harvested 72 hours after infection as described in Seeger, T. F. et al., Brain Research 985 (2003) 113-126. Insect cell paste was lysed and after centrifugation, the supernatant was chromatographed on Ni-NTA agarose (Qiagen) as described in Seeger, T. F. et al., Brain Research 985 (2003) 113-126. Ni-NTA agarose eluting fractions containing PDE10A were chromatographed on Superdex 200 (GE Healthcare Life Sciences) in 50 mM Tris HCl pH 7.5, 150 mM NaCl, 1 mM EDTA, 10% glycerol, 2 mM TCEP, 1.5 mM benzamidine, EDTA-free protease inhibitors (Roche), and 5 μM E-64.

rat PDE10 enzyme = rat PDE10 enzyme (Rattus norvegicus (Rat), UniProt Q9QYJ6); test: PDE10 scintillation proximity assay (SPA), inhibition of rat PDE10 enzyme activity; assay type: biochemical; details: geometric mean of 2-4 determinations unless otherwise indicated (b: ≧5 determinations; c: single determination)
Summary of the method: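 SPA with fixed recombinant PDE10 (Sf21-expressed, Ni-NTA and Mono Q purified) converting ~20% of 20 nM ³H-cAMP in 50 mM TRIS pH 7.5, 1.3 mM MgCl2, 0.01% Brij, across an inhibitor range.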

rat PDE10 enzyme, sequence (Q9QYJ6 24-794): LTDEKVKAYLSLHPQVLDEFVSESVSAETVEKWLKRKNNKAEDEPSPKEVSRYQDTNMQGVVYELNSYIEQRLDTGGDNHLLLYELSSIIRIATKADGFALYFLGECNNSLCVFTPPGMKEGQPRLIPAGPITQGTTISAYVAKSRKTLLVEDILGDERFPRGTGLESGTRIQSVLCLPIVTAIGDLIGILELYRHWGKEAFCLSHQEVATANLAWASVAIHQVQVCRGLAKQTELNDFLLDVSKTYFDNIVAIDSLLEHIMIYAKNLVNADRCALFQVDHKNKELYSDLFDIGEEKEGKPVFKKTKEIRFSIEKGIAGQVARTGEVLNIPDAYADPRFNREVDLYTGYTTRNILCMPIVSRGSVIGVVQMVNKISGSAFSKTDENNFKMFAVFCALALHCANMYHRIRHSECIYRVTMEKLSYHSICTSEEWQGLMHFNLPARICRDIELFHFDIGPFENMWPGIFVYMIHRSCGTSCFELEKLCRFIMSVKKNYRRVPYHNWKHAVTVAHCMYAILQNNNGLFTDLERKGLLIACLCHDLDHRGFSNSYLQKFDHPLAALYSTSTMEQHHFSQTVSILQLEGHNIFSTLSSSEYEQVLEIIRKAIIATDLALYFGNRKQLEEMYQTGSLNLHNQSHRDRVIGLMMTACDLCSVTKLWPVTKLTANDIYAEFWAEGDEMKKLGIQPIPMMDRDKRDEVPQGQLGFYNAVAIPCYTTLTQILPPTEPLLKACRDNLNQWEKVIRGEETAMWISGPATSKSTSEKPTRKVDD

Compound | IC50 [1] | IC50 (rat PDE10 enzyme)
Cc1nc(-c2ccccc2F)c2c(N3CCc4nc(C5CC5)ncc4C3)ncnn12 [Example 1, 2-Cyclopropyl-6-[5-(2-fluorophenyl)-7-methylimidazo[5,1-f][1,2,4]triazin-4-yl]-5,6,7,8-tetrahydropyrido[4,3-d]pyrimidine] | 5.93 nM | 4.23 nM
Cc1nc(-c2ccccc2F)c2c(N3CCc4cnn(C)c4C3)ncnn12 [Example 2, 5-(2-Fluorophenyl)-7-methyl-4-(1-methyl-1,4,5,7-tetrahydro-6H-pyrazolo[3,4-c]pyridin-6-yl)imidazo[5,1-f][1,2,4]triazine] | 3.28 nM | 2.95 nM
Cc1nc([C@@H]2CCOC2)c2c(N3CCc4cccnc4C3)ncnn12 [Example 3, 7-{7-Methyl-5-[(3S)-tetrahydrofuran-3-yl]imidazo[5,1-f][1,2,4]triazin-4-yl}-5,6,7,8-tetrahydro-1,7-naphthyridine] | 0.785 nM | 0.607 nM
Cc1nc([C@@H]2CCOC2)c2c(N3CCc4cnn(C5CC5)c4C3)ncnn12 [Example 5, 4-(1-Cyclopropyl-1,4,5,7-tetrahydro-6H-pyrazolo[3,4-c]pyridin-6-yl)-7-methyl-5-[(3S)-tetrahydrofuran-3-yl]imidazo[5,1-f][1,2,4]triazine] | 0.427 nM | 0.299 nM
Cc1nc([C@@H]2CCOC2)c2c(N3CCc4noc(C5CC5)c4C3)ncnn12 [Example 6, 4-(3-Cyclopropyl-6,7-dihydro[1,2]oxazolo[4,3-c]pyridin-5(4H)-yl)-7-methyl-5-[(3S)-tetrahydrofuran-3-yl]imidazo[5,1-f][1,2,4]triazine] | 0.406 nM | 0.364 nM
Cc1nc([C@@H]2CCOC2)c2c(N3CCc4cnn(C)c4C3)ncnn12 [Example 8, 7-Methyl-4-(1-methyl-1,4,5,7-tetrahydro-6H-pyrazolo[3,4-c]pyridin-6-yl)-5-[(3S)-tetrahydrofuran-3-yl]imidazo[5,1-f][1,2,4]triazine] | 3.41 nM | 2.36 nM
Cc1nc([C@@H]2CCOC2)c2c(N3CCc4nn(C5CC5)cc4C3)ncnn12 [Example 11, 4-(2-Cyclopropyl-2,4,6,7-tetrahydro-5H-pyrazolo[4,3-c]pyridin-5-yl)-7-methyl-5-[(3S)-tetrahydrofuran-3-yl]imidazo[5,1-f][1,2,4]triazine] | 0.265 nM | 0.174 nM
Cc1nc([C@@H]2CCOC2)c2c(N3CCc4c(c(C5CC5)nn4C)C3)ncnn12 [Example 12, 4-(3-Cyclopropyl-1-methyl-1,4,6,7-tetrahydro-5H-pyrazolo[4,3-c]pyridin-5-yl)-7-methyl-5-[(3S)-tetrahydrofuran-3-yl]imidazo[5,1-f][1,2,4]triazine] | 0.257 nM | 0.194 nM
Cc1nc(-c2ccccc2F)c2c(N3CCc4nc(C5CC5)n(C)c(=O)c4C3)ncnn12 [Example 142, 2-cyclopropyl-6-[5-(2-fluorophenyl)-7-methylimidazo[5,1-f][1,2,4]triazin-4-yl]-3-methyl-5,6,7,8-tetrahydropyrido[4,3-d]pyrimidin-4(3H)-one] | 1.31 nM | –
CCn1c(C2CC2)nc2c(c1=O)CN(c1ncnn3c(C)nc(-c4ccccc4F)c13)CC2 [Example 149, 2-cyclopropyl-3-ethyl-6-[5-(2-fluorophenyl)-7-methylimidazo[5,1-f][1,2,4]triazin-4-yl]-5,6,7,8-tetrahydropyrido[4,3-d]pyrimidin-4(3H)-one] | – | 0.497 nM
Cc1nc(-c2ccccc2F)c2c(N3CCc4ncccc4C3)ncnn12 [Example 151, 6-[5-(2-fluorophenyl)-7-methylimidazo[5,1-f][1,2,4]triazin-4-yl]-5,6,7,8-tetrahydro-1,6-naphthyridine] | – | 1.01 nM
CNc1ccc2c(n1)CCN(c1ncnn3c(C)nc(-c4ccccc4F)c13)C2 [Example 153, 6-[5-(2-fluorophenyl)-7-methylimidazo[5,1-f][1,2,4]triazin-4-yl]-N-methyl-5,6,7,8-tetrahydro-1,6-naphthyridin-2-amine] | – | 0.436 nM
Cc1nc([C@@H]2CCOC2)c2c(N3CCc4nccnc4C3)ncnn12 [Example 171, 6-{7-methyl-5-[(3S)-tetrahydrofuran-3-yl]imidazo[5,1-f][1,2,4]triazin-4-yl}-5,6,7,8-tetrahydropyrido[3,4-b]pyrazine] | – | 2.55 nM
Cc1nc(-c2ccccc2F)c2c(N3CCc4ncnc(O)c4C3)ncnn12 [Example 172, 6-[5-(2-fluorophenyl)-7-methylimidazo[5,1-f][1,2,4]triazin-4-yl]-5,6,7,8-tetrahydropyrido[4,3-d]pyrimidin-4-ol] | – | 11.3 nM

The next lines start with the values.

IC50 [1] | IC50 (rat PDE10 enzyme) | Compound
7.59 nM | – | Cc1nc([C@H]2CCCO2)c2c(N3CCc4cnn(C)c4C3)ncnn12 (single isomer, unassigned) [Example 13]
2.51 nM | 1.72 nM | Cc1nc([C@@H]2CCOC2)c2c(N3Cc4c(cnn4C)[C@H](C)C3)ncnn12 (single isomer, unassigned) [Example 20]
0.0386 nM | 0.205 nM | COc1ccc2c(c1OCCF)CN(c1ncnn3c(C)nc([C@@H]4CCOC4)c13)CC2 [Example 4, 8-(2-Fluoroethoxy)-7-methoxy-2-{7-methyl-5-[(3S)-tetrahydrofuran-3-yl]imidazo[5,1-f][1,2,4]triazin-4-yl}-1,2,3,4-tetrahydroisoquinoline]
1.14 nM | 0.892 nM | Cc1nc([C@@H]2CCOC2)c2c(N3CCc4nc(C5CC5)oc4C3)ncnn12 [Example 9, 4-(2-Cyclopropyl-6,7-dihydro[1,3]oxazolo[5,4-c]pyridin-5(4H)-yl)-7-methyl-5-[(3S)-tetrahydrofuran-3-yl]imidazo[5,1-f][1,2,4]triazine]
0.486 nM | 0.147 nM | CCc1nn(C)c2c1CN(c1ncnn3c(C)nc([C@@H]4CCOC4)c13)CC2 [Example 18, 4-(3-ethyl-1-methyl-1,4,6,7-tetrahydro-5H-pyrazolo[4,3-c]pyridin-5-yl)-7-methyl-5-[(3S)-tetrahydrofuran-3-yl]imidazo[5,1-f][1,2,4]triazine]
– | 0.0837 nM | [2H]C([2H])([2H])n1c(C2CC2)nc2c(c1=O)CN(c1ncnn3c(C)nc([C@@H]4CCOC4)c13)CC2 [Example 144]
– | 9.98 nM | CCOc1nc(C2CC2)nc2c1CN(c1ncnn3c(C)nc(-c4ccccc4F)c13)CC2 [Example 147, 2-cyclopropyl-4-ethoxy-6-[5-(2-fluorophenyl)-7-methylimidazo[5,1-f][1,2,4]triazin-4-yl]-5,6,7,8-tetrahydropyrido[4,3-d]pyrimidine]
– | 0.0697 nM | CCn1c(C2CC2)nc2c(c1=O)CN(c1ncnn3c(C)nc([C@@H]4CCOC4)c13)CC2 [Example 150, 2-cyclopropyl-3-ethyl-6-{7-methyl-5-[(3S)-tetrahydrofuran-3-yl]imidazo[5,1-f][1,2,4]triazin-4-yl}-5,6,7,8-tetrahydropyrido[4,3-d]pyrimidin-4(3H)-one]
– | 0.144 nM | Cc1nc([C@@H]2CCOC2)c2c(N3CCc4nc(C5CC5)ccc4C3)ncnn12 [Example 154, 2-cyclopropyl-6-{7-methyl-5-[(3S)-tetrahydrofuran-3-yl]imidazo[5,1-f][1,2,4]triazin-4-yl}-5,6,7,8-tetrahydro-1,6-naphthyridine]
– | 0.171 nM | Cc1cccc2c1CN(c1ncnn3c(C)nc([C@@H]4CCOC4)c13)CC2 [Example 155, 8-methyl-2-{7-methyl-5-[(3S)-tetrahydrofuran-3-yl]imidazo[5,1-f][1,2,4]triazin-4-yl}-1,2,3,4-tetrahydroisoquinoline]
– | 0.227 nM | Cc1nc([C@@H]2CCOC2)c2c(N3CCc4c(O)nc(C5CCCC5)nc4C3)ncnn12 [Example 158, 2-cyclopentyl-7-{7-methyl-5-[(3S)-tetrahydrofuran-3-yl]imidazo[5,1-f][1,2,4]triazin-4-yl}-5,6,7,8-tetrahydropyrido[3,4-d]pyrimidin-4-ol]
– | 3.76 nM | Cc1nc(-c2ccccc2F)c2c(N3CCc4c(O)nc(C5CCCC5)nc4C3)ncnn12 [Example 160, 2-cyclopentyl-7-[5-(2-fluorophenyl)-7-methylimidazo[5,1-f][1,2,4]triazin-4-yl]-5,6,7,8-tetrahydropyrido[3,4-d]pyrimidin-4-ol]
– | 0.136 nM | [2H]C([2H])([2H])Oc1nc(C2CC2)nc2c1CN(c1ncnn3c(C)nc([C@@H]4CCOC4)c13)CC2 [Example 173]
